Results on 25 compounds are retold here after paper PMC10766639, “Synthesis, in vitro potency of inhibition, enzyme kinetics and in silico studies of quinoline-based α-glucosidase inhibitors” (Scientific Reports, 2024).

Where two headings read alike, the source gives them in different places. Bounds are passed on as bounds.

Data set [1] has as its target Saccharomyces cerevisiae α-glucosidase enzyme (EC. 3. 2. 1. 20) (Saccharomyces cerevisiae, UniProt P38158). Kind of data set: In vitro α-glucosidase inhibitory activity. In kind it is biochemical.
Source text: In order to conduct the enzyme assay, the Saccharomyces cerevisiae α-glucosidase enzyme (EC. 3. 2. 1. 20) have been used.
Data set [2] in a line: Concentrations of precipitation. In kind it is physicochemical. From the text:
Table 1 α-Glucosidase inhibitory activity of compounds 8a–t. | column: Concentrations of precipitation (µM)

Data set [3] deals with α-glucosidase. Also noted: method as in PMID 36782003, PMID 35982225, PMID 36928433, PMID 37188744, doi:10.1039/C5MD00280J. Particulars: cited from earlier work.
Data set [4] concerns the target α-glucosidase (Saccharomyces cerevisiae, UniProt P38158). Kind of data set: Enzyme kinetic study (Lineweaver–Burk plot). In kind it is biochemical. The source says:
A Lineweaver–Burk plot was generated to recognize the type of inhibition and the Michaelis–Menten constant (Km) value was defined from the plot between the reciprocal of the substrate concentration (1/[S]) and reciprocal of enzyme rate (1/V) over different concentrations of inhibitor.

Saccharomyces cerevisiae α-glucosidase enzyme (EC. 3. 2. 1. 20), sequence (P38158 whole entry): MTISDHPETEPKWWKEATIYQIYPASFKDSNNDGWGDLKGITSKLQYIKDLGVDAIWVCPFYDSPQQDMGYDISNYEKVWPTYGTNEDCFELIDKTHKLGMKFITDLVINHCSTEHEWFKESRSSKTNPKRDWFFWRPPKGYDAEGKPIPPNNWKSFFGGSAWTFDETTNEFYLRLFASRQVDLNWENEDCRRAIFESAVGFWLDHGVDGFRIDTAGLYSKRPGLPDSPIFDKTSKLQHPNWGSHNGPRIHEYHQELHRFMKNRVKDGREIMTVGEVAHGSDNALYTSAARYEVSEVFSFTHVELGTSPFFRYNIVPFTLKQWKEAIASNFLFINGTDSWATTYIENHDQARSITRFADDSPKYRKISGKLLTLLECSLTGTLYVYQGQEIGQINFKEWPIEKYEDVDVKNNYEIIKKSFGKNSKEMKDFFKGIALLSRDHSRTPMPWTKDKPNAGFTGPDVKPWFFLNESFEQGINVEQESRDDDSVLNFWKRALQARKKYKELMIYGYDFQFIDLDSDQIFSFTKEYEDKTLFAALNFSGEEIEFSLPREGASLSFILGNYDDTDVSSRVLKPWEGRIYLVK
α-glucosidase (Saccharomyces cerevisiae, UniProt P38158), sequence (P38158 whole entry): as above

Consider “2-((3-(benzo[d]thiazol-2-yl)quinolin-2-yl)thio)-N-(4-methyl-2-nitrophenyl)acetamide [Compound 8n]”, for which the IC50 in data set [1] (α-glucosidase, mean ± SD of three independent determinations of triplicate samples, read-out: IC50) worked out at 65.9 ± 1 µM. This compound yielded a Concentrations of precipitation in data set [2] of more than 90 µM.

Take `O=C(N/N=C/c1cc(O)c(O)cc1O)c1ccc(-c2nnc(-c3ccc4ncccc4c3)o2)cc1` [A]: the IC50 at α-glucosidase [3] (Fig. 2, study of compound A with its acarbose standard) is 2.6 ± 0.01 µM.

Regarding `O=C(CSc1nc2ccccc2cc1-c1nc2ccccc2[nH]1)Nc1cccc(Cl)c1` [C], on α-glucosidase [3] (Fig. 2, study of compound C with its acarbose standard), the IC50 was 3.2 ± 0.3 µM.

In data set [1], `O=C(CSc1nc2ccccc2cc1-c1nc2ccccc2s1)Nc1ccccc1` [Compound 8a, 2-((3-(benzo[d]thiazol-2-yl)quinolin-2-yl)thio)-N-phenylacetamide] had an IC50 of 299 ± 0.1 µM. Further, in data set [2], the Concentrations of precipitation is more than 90 µM.

The compound `Cc1ccccc1NC(=O)CSc1nc2ccccc2cc1-c1nc2ccccc2s1` [Compound 8b, 2-((3-(benzo[d]thiazol-2-yl)quinolin-2-yl)thio)-N-(o-tolyl)acetamide] displayed a melting point of 211 to 213 °C. In data set [1], the IC50 is 79.9 ± 1.2 µM. In addition, in data set [1] (α-glucosidase, more potent than 8c), the “Potency compared to para-isomer (8c)” value is given as “fivefold”. For the same compound, the Concentrations of precipitation in data set [2] is more than 90 µM.

`Cc1ccc(NC(=O)CSc2nc3ccccc3cc2-c2nc3ccccc3s2)cc1` [Compound 8c, 2-((3-(benzo[d]thiazol-2-yl)quinolin-2-yl)thio)-N-(p-tolyl)acetamide] showed an IC50 in data set [1] of 384.3 ± 0.3 µM. The Concentrations of precipitation in data set [2] is more than 90 µM.

On to `CCc1ccc(NC(=O)CSc2nc3ccccc3cc2-c2nc3ccccc3s2)cc1` [Compound 8d, 2-((3-(benzo[d]thiazol-2-yl)quinolin-2-yl)thio)-N-(4-ethylphenyl)acetamide], for which the IC50 in data set [1] amounted to 194.4 ± 0.8 µM. Moreover, the Concentrations of precipitation in data set [2] is given as more than 90 µM.

Regarding `Cc1cccc(NC(=O)CSc2nc3ccccc3cc2-c2nc3ccccc3s2)c1C` [Compound 8e, 2-((3-(benzo[d]thiazol-2-yl)quinolin-2-yl)thio)-N-(2,3-dimethylphenyl)acetamide], half-maximal inhibition in data set [1] (IC50) required 130.4 ± 0.5 µM. In data set [2], this compound registered a Concentrations of precipitation of more than 90 µM.

`Cc1cccc(C)c1NC(=O)CSc1nc2ccccc2cc1-c1nc2ccccc2s1` [Compound 8f, 2-((3-(benzo[d]thiazol-2-yl)quinolin-2-yl)thio)-N-(2,6-dimethylphenyl)acetamide] came in with an IC50 in data set [1] of 231.6 ± 0.7 µM. This compound registered a Concentrations of precipitation in data set [2] of more than 90 µM.

As for `O=C(CSc1nc2ccccc2cc1-c1nc2ccccc2s1)Nc1ccccc1F` [Compound 8g, 2-((3-(benzo[d]thiazol-2-yl)quinolin-2-yl)thio)-N-(2-fluorophenyl)acetamide], the melting point was in the range of 201 to 203 °C. The compound also registered an IC50 in data set [1] of 198.5 ± 0.9 µM. In data set [2], this compound yielded a Concentrations of precipitation of more than 90 µM.

In data set [1], `O=C(CSc1nc2ccccc2cc1-c1nc2ccccc2s1)Nc1ccc(F)cc1` [Compound 8h, 2-((3-(benzo[d]thiazol-2-yl)quinolin-2-yl)thio)-N-(4-fluorophenyl)acetamide] had an IC50 of 38.2 ± 0.3 µM. For the same compound, on α-glucosidase [4] (Lineweaver–Burk plot), the Type of inhibition result is “non-competitive inhibition”. Moreover, the Ki on α-glucosidase [4] (read-out: Ki (inhibition constant)) came out at 38.2 µM. In data set [2], this compound had a Concentrations of precipitation of more than 90 µM.

Consider `O=C(CSc1nc2ccccc2cc1-c1nc2ccccc2s1)Nc1ccccc1Cl` [Compound 8i, 2-((3-(benzo[d]thiazol-2-yl)quinolin-2-yl)thio)-N-(2-chlorophenyl)acetamide], for which the melting point is 221 to 223 °C. The same compound displayed an IC50 in data set [1] of 118 ± 1.4 µM. Besides, in data set [2], the Concentrations of precipitation is reported as more than 90 µM.

In the case of `O=C(CSc1nc2ccccc2cc1-c1nc2ccccc2s1)Nc1cccc(Cl)c1` [Compound 8j, 2-((3-(benzo[d]thiazol-2-yl)quinolin-2-yl)thio)-N-(3-chlorophenyl)acetamide], half-maximal inhibition in data set [1] (IC50) required 111.7 ± 1.1 µM. The compound further displayed a Concentrations of precipitation in data set [2] of more than 90 µM.

`O=C(CSc1nc2ccccc2cc1-c1nc2ccccc2s1)Nc1ccc(Cl)cc1` [Compound 8k, 2-((3-(benzo[d]thiazol-2-yl)quinolin-2-yl)thio)-N-(4-chlorophenyl)acetamide] gave an IC50 in data set [1] of 145 ± 1.5 µM. Further, in data set [2], the Concentrations of precipitation is reported as more than 90 µM.

The compound `O=C(CSc1nc2ccccc2cc1-c1nc2ccccc2s1)Nc1ccc(Br)cc1` [Compound 8l, 2-((3-(benzo[d]thiazol-2-yl)quinolin-2-yl)thio)-N-(4-bromophenyl)acetamide] yielded an IC50 in data set [1] of 182.7 ± 1 µM. The compound further displayed a Concentrations of precipitation in data set [2] of more than 90 µM.

`O=C(CSc1nc2ccccc2cc1-c1nc2ccccc2s1)Nc1ccc([N+](=O)[O-])cc1` [Compound 8m, 2-((3-(benzo[d]thiazol-2-yl)quinolin-2-yl)thio)-N-(4-nitrophenyl)acetamide] displayed a melting point of 209 to 211 °C. This compound gave an IC50 in data set [1] of 198.9 ± 1.5 µM. This compound also registered a Concentrations of precipitation in data set [2] of more than 90 µM.

Turning to `O=C(CSc1nc2ccccc2cc1-c1nc2ccccc2s1)Nc1ncc([N+](=O)[O-])s1` [Compound 8o, 2-((3-(benzo[d]thiazol-2-yl)quinolin-2-yl)thio)-N-(5-nitrothiazol-2-yl)acetamide], the melting point was 199 to 201 °C. In data set [1], this compound returned an IC50 of 47.2 ± 0.6 µM. Further, in data set [2], the Concentrations of precipitation is on record as more than 90 µM.

`O=C(CSc1nc2ccccc2cc1-c1nc2ccccc2s1)Nc1cccc2ccccc12` [Compound 8p, 2-((3-(benzo[d]thiazol-2-yl)quinolin-2-yl)thio)-N-(naphthalen-1-yl)acetamide] showed a melting point of 198 to 200 °C. The IC50 in data set [1] was 139.8 ± 1 µM. In data set [2], the Concentrations of precipitation is listed as more than 90 µM.

Compound `O=C(CSc1nc2ccccc2cc1-c1nc2ccccc2s1)NCc1ccccc1` [Compound 8q, 2-((3-(benzo[d]thiazol-2-yl)quinolin-2-yl)thio)-N-benzylacetamide] gave an IC50 in data set [1] of 255.6 ± 0.3 µM. In data set [2], this compound gave a Concentrations of precipitation of more than 90 µM.

For the compound `Cc1ccc(CNC(=O)CSc2nc3ccccc3cc2-c2nc3ccccc3s2)cc1` [Compound 8r, 2-((3-(benzo[d]thiazol-2-yl)quinolin-2-yl)thio)-N-(4-methylbenzyl)acetamide], the melting point was in the range of 182 to 184 °C. In addition, it took 161.4 ± 0.4 µM to reach half-maximal inhibition in data set [1] (IC50). This compound displayed a Concentrations of precipitation in data set [2] of more than 90 µM.

Compound `O=C(CSc1nc2ccccc2cc1-c1nc2ccccc2s1)NCc1ccc(F)cc1` [Compound 8s, 2-((3-(benzo[d]thiazol-2-yl)quinolin-2-yl)thio)-N-(4-fluorobenzyl)acetamide] yielded a melting point of 213 to 215 °C. Moreover, the IC50 in data set [1] was 130.1 ± 0.7 µM. The “Less activity compared to phenyl one” value in data set [1] (α-glucosidase, para-fluoro benzyl less active than para-fluoro phenyl) was “about threefold”. Moreover, the Concentrations of precipitation in data set [2] is on record as more than 90 µM.

Turning to `O=C(CSc1nc2ccccc2cc1-c1nc2ccccc2s1)NCCc1ccccc1` [Compound 8t, 2-((3-(benzo[d]thiazol-2-yl)quinolin-2-yl)thio)-N-phenethylacetamide], the melting point was 225 to 227 °C. The same compound showed an IC50 in data set [1] of 222.7 ± 0.9 µM. Also, in data set [2], the Concentrations of precipitation was more than 90 µM.

For the compound `Cc1cccc(C)c1NC(=O)CSc1nc2ccccc2cc1/C=N/NC(=O)c1ccccc1` [D], at α-glucosidase [3] (Fig. 2, study of compound D with its acarbose standard), the IC50 was 14 ± 0.6 µM.

For `Oc1ccc(-c2nnc(-c3ccc(-c4nc5ccccc5s4)cc3)o2)cc1O` [E], on α-glucosidase [3] (Fig. 2, study of compound E with its acarbose standard), the IC50 is 0.5 ± 0.01 µM.

As to `O=C(N/N=C/c1ccc(Cl)cc1)c1ccc(-c2nc3ccccc3s2)cc1` [F], the concentration for half-maximal inhibition (IC50) at α-glucosidase [3] (Fig. 2, study of compound F with its acarbose standard) is 5.31 ± 0.03 µM.

What is called IC50 is the concentration that inhibits the measured activity by half. Usually melting point stands for the temperature, or range, at which the solid turns liquid. For orientation: Ki means the equilibrium dissociation constant of an inhibitor or competing ligand from its target.
